PubChem BioAssay (NCI)
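Five compound concentrations were applied to cells in 96-well plates for 48 hours; endpoints were derived by simple linear interpolation of the resulting dose-response curve. The concentration for 50% growth inhibition is given as GI50. The concentration for full growth arrest is given as TGI.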

Columns and labels:
Assay in all cases: NCI anticancer screen, dose series, 48 h
[1] = tested on: A549 NSCLC
[2] = tested on: UACC-257 melanoma
[3] = tested on: DU-145 prostate
[4] = tested on: RXF 393 renal
[5] = tested on: SN12C renal
[6] = tested on: TK-10 renal
[7] = tested on: LOX IMVI melanoma
[8] = tested on: OVCAR-8 ovarian
[9] = tested on: OVCAR-3 ovarian
[10] = tested on: CCRF-CEM leukemia
[11] = tested on: SNB-75 CNS
[12] = tested on: 786-0 renal
[13] = tested on: IGROV1 ovarian
[14] = tested on: CAKI-1 renal
[15] = tested on: K-562 leukemia
[16] = tested on: MCF7 breast
[17] = tested on: HCT-15 colon
[18] = tested on: MDA-MB-231 breast
[19] = tested on: MOLT-4 leukemia
[20] = tested on: HS 578T breast
[21] = tested on: BT-549 breast
[22] = tested on: M14 melanoma
[23] = tested on: ACHN renal
[24] = tested on: HT29 colon
[25] = tested on: NCI-H226 lung
[26] = tested on: A498 renal
[27] = tested on: SK-OV-3 ovarian
[28] = tested on: EKVX NSCLC
[29] = tested on: HL-60(TB) leukemia
[30] = tested on: UACC-62 melanoma
[31] = tested on: SK-MEL-2 melanoma
[32] = tested on: NCI-H522 lung
[33] = tested on: SF-539 CNS
[34] = tested on: NCI-H23 lung
[35] = tested on: UO-31 renal
[36] = tested on: SK-MEL-28 melanoma
[37] = tested on: SNB-19 CNS
[38] = tested on: HCC-2998 colon
[39] = tested on: SF-268 CNS
[40] = tested on: COLO 205 colon
[41] = tested on: KM12 colon
[42] = tested on: OVCAR-5 ovarian
[43] = tested on: HOP-92 NSCLC
[44] = tested on: HCT-116 colon
[45] = tested on: MDA-MB-435
[46] = tested on: HOP-62 NSCLC
[47] = tested on: SK-MEL-5 melanoma
[48] = tested on: PC-3 prostate
[49] = tested on: T-47D breast
[50] = tested on: MALME-3M melanoma
[51] = tested on: RPMI-8226 leukemia
[52] = tested on: MDA-MB-468 breast
[53] = tested on: SF-295 CNS

Structure (SMILES): Cn1cc(-c2cc3nc(-c4cn(C)c5ncc(Br)cc45)cc(N)n3n2)c2cc(Cl)ccc21
- GI50 [1]: 1.62 µM
- TGI [1]: 3.54 µM
- GI50 [2]: 1.71 µM
- TGI [2]: 3.56 µM
- GI50 [3]: 1.78 µM
- TGI [3]: 3.61 µM
- GI50 [4]: 1.82 µM
- TGI [4]: 3.47 µM
- GI50 [5]: 1.72 µM
- TGI [5]: 3.44 µM
- GI50 [6]: 1.6 µM
- TGI [6]: 3.13 µM
- GI50 [7]: 1.61 µM
- TGI [7]: 2.96 µM
- GI50 [8]: 2.02 µM
- TGI [8]: 4.96 µM
- GI50 [9]: 1.63 µM
- TGI [9]: 3.25 µM
- GI50 [10]: 2.87 µM
- TGI [10]: 9.95 µM
- GI50 [11]: 1.75 µM
- TGI [11]: 4.03 µM
- GI50 [12]: 1.76 µM
- TGI [12]: 3.2 µM
- GI50 [13]: 1.71 µM
- TGI [13]: 3.38 µM
- GI50 [14]: 1.45 µM
- TGI [14]: 2.95 µM
- GI50 [15]: 1.84 µM
- TGI [15]: 5.5 µM
- GI50 [16]: 1.64 µM
- TGI [16]: 3.25 µM
- GI50 [17]: 1.57 µM
- TGI [17]: 3.16 µM
- GI50 [18]: 1.43 µM
- TGI [18]: 2.89 µM
- GI50 [19]: 1.71 µM
- TGI [19]: 5.07 µM
- GI50 [20]: 1.89 µM
- TGI [20]: 4.48 µM
- GI50 [21]: 1.91 µM
- TGI [21]: 4.24 µM
- GI50 [22]: 1.71 µM
- TGI [22]: 3.25 µM
- GI50 [23]: 1.55 µM
- TGI [23]: 2.88 µM
- GI50 [24]: 1.91 µM
- TGI [24]: 3.62 µM
- GI50 [25]: 1.99 µM
- TGI [25]: 4.42 µM
- GI50 [26]: 7.39 µM
- TGI [26]: 24 µM
- GI50 [27]: 13.7 µM
- TGI [27]: 29.1 µM
- GI50 [28]: 1.48 µM
- TGI [28]: 3.34 µM
- GI50 [29]: 1.99 µM
- TGI [29]: 5.06 µM
- GI50 [30]: 1.47 µM
- TGI [30]: 2.85 µM
- GI50 [31]: 1.93 µM
- TGI [31]: 4.2 µM
- GI50 [32]: 1.87 µM
- TGI [32]: 3.84 µM
- GI50 [33]: 1.51 µM
- TGI [33]: 2.88 µM
- GI50 [34]: 1.91 µM
- TGI [34]: 3.98 µM
- GI50 [35]: 1.54 µM
- TGI [35]: 3.33 µM
- GI50 [36]: 1.72 µM
- TGI [36]: 3.23 µM
- GI50 [37]: 1.89 µM
- TGI [37]: 3.83 µM
- GI50 [38]: 1.74 µM
- TGI [38]: 3.17 µM
- GI50 [39]: 2.11 µM
- TGI [39]: 5.11 µM
- GI50 [40]: 2.56 µM
- TGI [40]: 6.65 µM
- GI50 [41]: 1.49 µM
- TGI [41]: 3.96 µM
- GI50 [42]: 1.52 µM
- TGI [42]: 3.39 µM
- GI50 [43]: 1.86 µM
- TGI [43]: 3.74 µM
- GI50 [44]: 1.55 µM
- TGI [44]: 2.96 µM
- GI50 [45]: 1.76 µM
- TGI [45]: 3.38 µM
- GI50 [46]: 1.72 µM
- TGI [46]: 3.48 µM
- GI50 [47]: 1.82 µM
- TGI [47]: 4 µM
- GI50 [48]: 1.76 µM
- TGI [48]: 4.09 µM
- GI50 [49]: 1.58 µM
- TGI [49]: 3.63 µM
- GI50 [50]: 1.74 µM
- TGI [50]: 3.2 µM
- GI50 [51]: 2.93 µM
- TGI [51]: 9.38 µM
- GI50 [52]: 1.32 µM
- TGI [52]: 2.68 µM
- GI50 [53]: 1.75 µM
- TGI [53]: 3.43 µM
